One data set deals with U87 glioblastoma cells. The data set is described as follows: Acid-induced calcium flux in U87 cells. The class given is cell-based, human. The following applies: medium shifted from pH 7.8 to 6.4. The source says: GPR68 is known to signal through Gq which results in a calcium flux out of the Endoplasmic reticulum. U87 glioblastoma cells were stained, using a calcium-sensitive vital dye Fluo-8, and stimulated with acidification of the media to pH6.4. The cells respond to the acidification with a burst of calcium release, this is inhibited by OGM2.
To determine if GBM cells respond to their own acidic extracellular milieu as a form of autocrine signaling, calcium release in response to acidification was measured. GPR68 is known to couple to the Gq subunit, which acts to release calcium from the ER in a PLC dependent pathway. The medium was shifted from pH 7.8 to 6.4, which triggered a rapid and robust calcium flux, as measured by the fluorescence intensity of calcium-sensitive dye Cal520-AM. This calcium flux was blocked by OGM2 and PLC inhibitor U73122. FIG. 50A, FIG. 50B, FIG. 50C and FIG. 50D.
On the technique in general: A change in cytosolic calcium serves as a functional read-out for many receptors and channels.

The next data set has as its system WM115. Kind of data set: Scratch assay. In kind it is cell-based, human. The note with it: 20 hours, OGM2 5 uM. The protocol:
(§1) Since there are numerous parallels are found between neural crest cells and cancer during migration, we examined whether OGM could inhibit the migration of cells in human melanoma cell lines (Oppitz et al., 2007; Schriek et al., 2005, Sinnberg et al., 2018). […] A2058. MeWo and WM115 cells were grown to confluence and a stripe of cells were denuded with a p200 pipette tip “scratch” and rinsed with PBS. Cells were treated with OGM or DMSO and incubated in low serum media. Imaging was done at 30 minutes after “scratch” and then 20 hours afterwards. Areas were then measured and normalized to the initial area.

A further data set deals with MeWo. Kind of data set: Scratch assay. The note with it: 20 hours, OGM2 5 uM. In kind it is cell-based, human. The protocol: as §1
The subject of the next data set is A2058. The data set is described as follows: Scratch assay. The following applies: 20 hours, OGM2 5 uM. The class given is cell-based, human.
Another data set has as its system zebrafish embryo. Kind of data set: Zebrafish embryo phenotype. The class given is in vivo. The protocol:
A chemical screen for small molecules that perturb embryonic development (dorsoventral axis) in zebrafish was performed as previously described (see Chen et al., 2009; Hao et al., 2013; Williams et al., 2015; Yu et al., 2008)). Briefly, pairs of WT zebrafish were mated, and fertilized eggs were arrayed in 96-well microtiter plates (5 embryos/well) containing […] E3 water. At 4 hours post fertilization (pf), a small molecule library from Vanderbilt High Throughput Screening Facility was added to each well to a final concentration of 10 μM. Embryos were incubated at 28.5 C until 24 and 48 hours pf, when they were examined for gross morphologic changes indicative of reproducible embryonic defects (dorsalization of the embryonic axis). A total of 30,000 compounds were screened. To discover novel small molecule modulators of embryonic development an unbiased screen of ˜30,000 small molecules was conducted, in which the compounds were assayed for their ability to induce phenotypic changes in the morphology of zebrafish. Further information on these assays can be found in Hao et al., 2013 and Williams et al., 2015. […] This compound was identified based on the phenotype of aberrant pigmentation. Compare FIG. 2B and FIG. 2C, which show a dorsal view of a representative DMSO vehicle control-treated zebrafish embryo at 48 hours pf and a dorsal view of a representative OGM1 (10 uM)-treated zebrafish embryo at 48 hours pf. […] Since GPCRs represent >30% of targets for FDA-approved small molecules and are known to modulate cell migration, activity against 158 GPCRs was assessed based on their chemical structures. GPCRs (158) were tested for agonist and antagonist activity at 10 μM. […] Chemical segregation analysis of zebrafish phenotype was conducted to further identify the inhibitory activity responsible for the zebrafish phenotype. […] The identities of the R groups in Formula A are shown below in Table 5.

A further data set concerns the target Lpa1 (Homo sapiens, UniProt Q92633). The data set is described as follows: Lpa1 activity of OGM analogs (Table 5). The class given is cell-based. The method, then:
GPCR profiling assays were performed by Millipore (St. Louis, MO) using in cells expressing Gα15, a promiscuous G protein that enhances GPCR coupling to downstream Ca2+ signaling pathways. KinomeScan was conducted by DiscoveRx (Fremont, CA). Since GPCRs represent >30% of targets for FDA-approved small molecules and are known to modulate cell migration, activity against 158 GPCRs was assessed based on their chemical structures. GPCRs (158) were tested for agonist and antagonist activity at 10 μM. […] Chemical segregation analysis of zebrafish phenotype was conducted to further identify the inhibitory activity responsible for the zebrafish phenotype. […] The identities of the R groups in Formula A are shown below in Table 5.

A further data set concerns the target T1, GPR68/OGR1 (Homo sapiens, UniProt Q15743).
T1 construct: host or cells: Chem-1 (CHEM1-OGR1) cells
The data set is described as follows: CHEM1-OGR1 cells Fluo-8 calcium assay, acidified media pH 6.4. In kind it is cell-based. The protocol: Briefly, the methods were: On the day before the assay 20,000 cells per well of CHEM1-OGR1 cells were plated in 10% DMEM containing 10% FBS and 1% Pen/Strep into a 96 well plate. After 24 hours media was removed and cells were stained with 80 μL Fluo-8 calcium indicator dye according to manufacturer's protocol. After staining cells were treated with 20 uL of 4× concentration of test compounds. Using kinetic imaging in the Lionheart HCS fluorescence intensity was continuously measure at 10 frames per second, for 5 seconds before 100 μL of acidified media was added to the well resulting in a pH of 6.4. A ratio of fluorescence intensities prior to addition and at peak were calculated and averaged. The resulting data were platted and using a 4 parameter logistic regression EC50 (the concentration causing 50% effective inhibition) for each test compound was determined.

A further data set deals with LPS-induced ALI. The data set is described as follows: LPS-induced acute lung injury. The class given is in vivo, mice. The source says: PMN (polymorphonuclear neutrophils).
For a further data set, the system named is U87 spheroids. The data set is described as follows: GBM spheroid assay. In kind it is cell-based, human. The method, then: One thousand cells per well were plated in an ultra-low attachment, round-bottomed, 96-well plate, and spheroids were allowed to form for 3 days. Wells were then exposed to concentrations of vehicle, OGM2 or TMZ or a combination for 3 days. Spheroids were imaged in brightfield at 10× using z-stacks that were collapsed into z-projections in the Gen5 software using the LionheartFx (BioTek™). Automated measurements of the spheroid area were obtained using Gen5 software.
Tumor spheroid cultures are a more physiological model of tumor growth than typical 2D cell culture. Temozolomide sensitive U87 (FIG. 20A) and Temozolomide insensitive U138 (FIG. 20B) glioblastoma cell lines were plated in low attachment round bottom 96-well plates and allowed to form tumor spheroids for 3 days (T0). At T0, spheroids were imaged using Lionheart™ (HCS) High-Content Imaging Systems (Biotek™) and then were exposed to increasing doses of either Temozolomide or OGM2. After 5 days of treatment the spheroids were imaged again (T5). The size (area) of the spheroids after 5 days of treatment was quantified, and the average size of the spheroids at TO is depicted in red.
A GPR68-positive allosteric modulator, Ogerin, was tested. U87glioblastoma cells were plated in low attachment round bottom 96-well plates and allowed to form tumor spheroids for 3 days (TO). These spheroids were treated with Vehicle (DMSO), 10 μM/20 μM Ogerin or 10 μM/20 μM Ogremorphin-2 (OGM2). The spheroids were placed in the Lionheart™ HCS equipped with environmental control (5% CO2 at 37° C.) and imaged every 12 hours.
Spheroids were formed over 3 days using low attachment 96-well round bottom plates and then treated with DMSO or OGM2 in either pH 8 buffered media or pH 6.2 buffered media and grown for 3 days. The size (area) of spheroids was measured in relative area units. […] This increase in growth was abrogated by OGM2.

In the next data set the test system is endothelial cell (EC). Kind of data set: Acidification-induced endothelial cell dysfunction. The following applies: OGM2 3 uM; Ogerin 2 uM. The class given is cell-based. The protocol: FIG. 34A through FIG. 34C: GPR68 plays a central role in acidification-induced endothelial cell (EC) dysfunction in vitro, and OGM2 abrogates EC dysfunction. […] These effects were abolished by OGM2 (OGM) at 3 uM and augmented by GPR68 positive allosteric modulator Ogerin (Og) at 2 uM. *P<0.05; Mann-Whitney test, n=5. FIG. 34C: Medium acidification reduced transendothelial resistance (TER), indicative of disruption of EC barrier function.

In a further data set the test system is HEK293. In kind it is cell-based. The following applies: human. The source says: FIG. 59A through FIG. 59D: OGM2 causes specific cell death in glioblastoma cells.
Thus, in contrast to erastin, OGM2 induces ferroptosis selectively in cancer cells.

The mark [1] stands for this setting: concentrations up to 200× the IC50.

Like-named read-outs stand apart in the source and are kept apart here.

Lpa1, sequence (Q92633 whole entry, species assumed): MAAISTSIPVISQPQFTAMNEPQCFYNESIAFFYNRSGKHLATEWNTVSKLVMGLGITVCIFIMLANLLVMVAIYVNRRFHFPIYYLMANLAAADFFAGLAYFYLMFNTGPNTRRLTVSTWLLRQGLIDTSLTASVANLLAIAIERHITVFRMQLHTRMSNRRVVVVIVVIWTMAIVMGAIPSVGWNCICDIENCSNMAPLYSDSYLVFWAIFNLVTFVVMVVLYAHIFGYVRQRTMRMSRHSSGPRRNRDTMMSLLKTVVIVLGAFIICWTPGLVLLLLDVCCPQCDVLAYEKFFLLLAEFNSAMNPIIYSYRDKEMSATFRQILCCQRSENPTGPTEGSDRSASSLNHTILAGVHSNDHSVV
T1 sequence (Q15743 whole entry): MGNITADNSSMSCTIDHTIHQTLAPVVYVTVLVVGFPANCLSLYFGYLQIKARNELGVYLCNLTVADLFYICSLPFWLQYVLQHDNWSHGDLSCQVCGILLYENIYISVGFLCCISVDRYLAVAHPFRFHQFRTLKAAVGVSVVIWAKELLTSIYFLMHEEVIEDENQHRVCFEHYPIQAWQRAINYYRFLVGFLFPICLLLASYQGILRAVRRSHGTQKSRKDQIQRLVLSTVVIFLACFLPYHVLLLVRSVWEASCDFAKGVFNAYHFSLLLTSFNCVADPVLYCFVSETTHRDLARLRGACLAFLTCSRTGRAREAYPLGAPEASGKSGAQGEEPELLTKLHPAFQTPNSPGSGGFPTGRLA

For the molecule `COc1ccc2c(c1)CC[C@@H]1[C@@H]2CC[C@]2(C)[C@@H](NCCCCCCN3C(=O)C=CC3=O)CC[C@@H]12` [Compound U73122], in the data set with U87 glioblastoma cells, the acid-induced calcium flux result is “blocked”. Consider `CCN(c1nc(N)c(C(=O)NC(=N)N)nc1Cl)C(C)C` [EIPA, reference compound], for which the migration result in the data set on WM115 is recorded as “inhibited migration”; with MeWo it was “not”; with A2058 it was “inhibited migration”. For orientation: IC50 means the concentration that inhibits the measured activity by half. On to `Cc1noc(-c2ccc(CSCCC(=O)O)cc2)c1NC(=O)OC(C)c1ccccc1Cl` (stereo not shown) [LPAi], for which the “induction of zebrafish phenotype” value is given as “failed to induce the phenotype” in the data set on zebrafish embryo (concentrations up to 50 μM, ˜200× its IC50) and “failed to induce a noticeable phenotype” in the data set with zebrafish embryo (setting [1]). The molecule also returned an IC50 against Lpa1 of 0.25 µM. In the case of `CCc1nn2c(C)cc(C)nc2c1Cc1ccc(-c2nnc(C3CCNCC3)o2)cc1` [NE52QQ, reference compound], the acid-induced calcium flux entry in the data set on U87 glioblastoma cells is “not significant”. For `Cc1ccc2c(c1)C1(NN=C(c3ccccc3)S1)C(=O)N2` (stereo not shown) [OGM3], at GPR68/OGR1 (Table 5, read-out: GPR68), the EC50 came out at 0.76 µM. In addition, the midpoint of inhibition against Lpa1, the IC50, lay at 6.4 µM. As for `CCc1ccc2c(c1)C1(NN=C(c3ccccc3O)S1)C(=O)N2` (stereo not shown) [OGM4], on GPR68/OGR1 (Table 5, read-out: GPR68), the EC50 came out at 3.4 µM. At Lpa1, the IC50 came out at 1.4 µM. In the case of `COc1ccc(C2=NNC3(S2)C(=O)Nc2ccc(OC)cc23)cc1` (stereo not shown) [OGM17], the EC50 on GPR68/OGR1 (concentration causing 50% effective inhibition of calcium response to pH 6.4, read-out: EC50) came out at 0.262 µM. In the data set on LPS-induced ALI (LPS 0.7 mg/kg intratracheally, compounds intraperitoneally), the “inflammatory cell infiltrates in BAL” value was “reduced inflammatory cell infiltrates in BAL”. In addition, the “reversal of markers of ALI, comparison with OGM2” value in the data set on LPS-induced ALI (mouse, in vivo) is listed as “much more potent in reversing the markers of ALI due to LPS in vivo”. As to `Nc1nc(NCc2ccccc2)nc(-c2ccccc2CO)n1` [Ogerin, reference compound], the spheroid growth rate result in the data set on U87 spheroids is recorded as “promoted U87 spheroids growth rate”. Further, the “acidic media (pH 6.5)-induced TNFα, VCAM1 and ICAM1 expression” value with endothelial cell (EC) is “augmented”. `COc1cc(Br)c(S(=O)(=O)Nc2ccc(Cl)c(O[C@@H]3CCN(C)C3)c2)cc1OC` [UT2i]: the “induction of zebrafish phenotype” value in the data set on zebrafish embryo (setting [1]) is “failed to induce a noticeable phenotype”. On to `CCOc1ccccc1-n1c(C(C)N2CCN(C(=O)COc3ccc(Cl)cc3)CC2)nc2ccccc2c1=O` (stereo not shown) [erastin, reference compound], for which the “HEK293 cell viability / survival” value in the data set on HEK293 was “dramatically reduced HEK293 cell survival”.

(Values after US20240327364A1, “THERAPEUTIC TARGETING OF GPR68 TO INDUCE FERROPTOSIS” (University Of Maryland, Baltimore, priority 2023, published 2024).)
